Test results published in the supplement of paper PMC4862054.

test system: CAL-120; experiment: normalised response (% of control), CellTiter-Glo; higher = more viable cells (100 = DMSO, 0 = benzethonium chloride kill control); settings: incubation time: 72 h
Summary of the method: (§1)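 Plates were normalised with 0.1 % DMSO as 100 and a positive kill control as 0. Breast cancer cell lines in 20 µl suspension had been seeded into 384-well plates with compound at 5 concentrations in 10-fold steps over a compound-specific 10,000-fold range, incubated 72 h, and read for CellTox Green fluorescence (485/520 nm) followed by CellTiter-Glo luminescence. Each value is the normalised signal at a single concentration.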

| SMILES | normalised response [%] |
| --- | --- |
| CS(=O)(=O)CCNCc1ccc(-c2ccc3ncnc(Nc4ccc(OCc5cccc(F)c5)c(Cl)c4)c3c2)o1 [Lapatinib] (100 nM) | 102 |

test system: Hs578T; experiment: as above; settings: incubation time: 72 h
Summary of the method: as §1

| SMILES | normalised response [%] |
| --- | --- |
| Cc1cc(C(C)Nc2ccccc2)c2nc(N3CCOCC3)cc(=O)n2c1 (stereo unspecified) [TGX-221] (1000 nM) | 93.7 |
| CCCC(CCC)C(=O)O [Valproic acid] (100000 nM) | 104 |
| COc1cc(Nc2ncc(F)c(Nc3ccc4c(n3)NC(=O)C(C)(C)O4)n2)cc(OC)c1OC [Tamatinib] (1000 nM) | 101 |
| Nc1nccc(-c2c(-c3ccc(F)cc3)ncn2C2CCCCC2)n1 (1000 nM) | 104 |
| CN(c1ccccc1CNc1nc(Nc2ccc3c(c2)CC(=O)N3)ncc1C(F)(F)F)S(C)(=O)=O (1000 nM) | 89.1 |
| FC(F)c1nc2ccccc2n1-c1nc(N2CCOCC2)nc(N2CCOCC2)n1 [ZSTK474] (1000 nM) | 45.4 |
| C[C@@H]1CCN(C(=O)CC#N)C[C@@H]1N(C)c1ncnc2[nH]ccc12 [Tofacitinib] (500 nM) | 99.8 |
| COC(=O)C[C@](O)(CCCC(C)(C)O)C(=O)O[C@@H]1C(OC)=C[C@]23CCCN2CCc2cc4c(cc2[C@H]13)OCO4 [Omacetaxine] (1000 nM) | 2 |
| CS(=O)(=O)CCNCc1ccc(-c2ccc3ncnc(Nc4ccc(OCc5cccc(F)c5)c(Cl)c4)c3c2)o1 [Lapatinib] (100 nM) | 115 |

test system: MCF-10A; experiment: as above; settings: incubation time: 72 h
Summary of the method: as §1

| SMILES | normalised response [%] |
| --- | --- |
| Cc1cc(C(C)Nc2ccccc2)c2nc(N3CCOCC3)cc(=O)n2c1 (stereo unspecified) [TGX-221] (1000 nM) | 93.8 |
| CCCC(CCC)C(=O)O [Valproic acid] (100000 nM) | 101 |
| COc1cc(Nc2ncc(F)c(Nc3ccc4c(n3)NC(=O)C(C)(C)O4)n2)cc(OC)c1OC [Tamatinib] (1000 nM) | 104 |
| Nc1nccc(-c2c(-c3ccc(F)cc3)ncn2C2CCCCC2)n1 (1000 nM) | 103 |
| CN(c1ccccc1CNc1nc(Nc2ccc3c(c2)CC(=O)N3)ncc1C(F)(F)F)S(C)(=O)=O (1000 nM) | 63.5 |
| FC(F)c1nc2ccccc2n1-c1nc(N2CCOCC2)nc(N2CCOCC2)n1 [ZSTK474] (1000 nM) | 47.5 |
| C[C@@H]1CCN(C(=O)CC#N)C[C@@H]1N(C)c1ncnc2[nH]ccc12 [Tofacitinib] (500 nM) | 97.5 |
| COC(=O)C[C@](O)(CCCC(C)(C)O)C(=O)O[C@@H]1C(OC)=C[C@]23CCCN2CCc2cc4c(cc2[C@H]13)OCO4 [Omacetaxine] (1000 nM) | 11.3 |
| CS(=O)(=O)CCNCc1ccc(-c2ccc3ncnc(Nc4ccc(OCc5cccc(F)c5)c(Cl)c4)c3c2)o1 [Lapatinib] (100 nM) | 79.1 |

test system: CAL-85-1; experiment: as above; settings: incubation time: 72 h
Summary of the method: as §1

| SMILES | normalised response [%] |
| --- | --- |
| Cc1cc(C(C)Nc2ccccc2)c2nc(N3CCOCC3)cc(=O)n2c1 (stereo unspecified) [TGX-221] (1000 nM) | 91.7 |
| CCCC(CCC)C(=O)O [Valproic acid] (100000 nM) | 101 |
| COc1cc(Nc2ncc(F)c(Nc3ccc4c(n3)NC(=O)C(C)(C)O4)n2)cc(OC)c1OC [Tamatinib] (1000 nM) | 95.1 |
| Nc1nccc(-c2c(-c3ccc(F)cc3)ncn2C2CCCCC2)n1 (1000 nM) | 96.7 |
| CN(c1ccccc1CNc1nc(Nc2ccc3c(c2)CC(=O)N3)ncc1C(F)(F)F)S(C)(=O)=O (1000 nM) | 87.2 |
| FC(F)c1nc2ccccc2n1-c1nc(N2CCOCC2)nc(N2CCOCC2)n1 [ZSTK474] (1000 nM) | 49.8 |
| C[C@@H]1CCN(C(=O)CC#N)C[C@@H]1N(C)c1ncnc2[nH]ccc12 [Tofacitinib] (500 nM) | 106 |
| COC(=O)C[C@](O)(CCCC(C)(C)O)C(=O)O[C@@H]1C(OC)=C[C@]23CCCN2CCc2cc4c(cc2[C@H]13)OCO4 [Omacetaxine] (1000 nM) | 0.88 |
| CS(=O)(=O)CCNCc1ccc(-c2ccc3ncnc(Nc4ccc(OCc5cccc(F)c5)c(Cl)c4)c3c2)o1 [Lapatinib] (100 nM) | 96.1 |

test system: MDA-MB-436; experiment: as above; settings: incubation time: 72 h
Summary of the method: as §1

| SMILES | normalised response [%] |
| --- | --- |
| Cc1cc(C(C)Nc2ccccc2)c2nc(N3CCOCC3)cc(=O)n2c1 (stereo unspecified) [TGX-221] (1000 nM) | 89.4 |
| CCCC(CCC)C(=O)O [Valproic acid] (100000 nM) | 101 |
| COc1cc(Nc2ncc(F)c(Nc3ccc4c(n3)NC(=O)C(C)(C)O4)n2)cc(OC)c1OC [Tamatinib] (1000 nM) | 104 |
| Nc1nccc(-c2c(-c3ccc(F)cc3)ncn2C2CCCCC2)n1 (1000 nM) | 103 |
| CN(c1ccccc1CNc1nc(Nc2ccc3c(c2)CC(=O)N3)ncc1C(F)(F)F)S(C)(=O)=O (1000 nM) | 101 |
| FC(F)c1nc2ccccc2n1-c1nc(N2CCOCC2)nc(N2CCOCC2)n1 [ZSTK474] (1000 nM) | 56.8 |
| C[C@@H]1CCN(C(=O)CC#N)C[C@@H]1N(C)c1ncnc2[nH]ccc12 [Tofacitinib] (500 nM) | 104 |
| COC(=O)C[C@](O)(CCCC(C)(C)O)C(=O)O[C@@H]1C(OC)=C[C@]23CCCN2CCc2cc4c(cc2[C@H]13)OCO4 [Omacetaxine] (1000 nM) | 17.2 |
| CS(=O)(=O)CCNCc1ccc(-c2ccc3ncnc(Nc4ccc(OCc5cccc(F)c5)c(Cl)c4)c3c2)o1 [Lapatinib] (100 nM) | 103 |

test system: BT-549; experiment: as above; settings: incubation time: 72 h
Summary of the method: as §1

| SMILES | normalised response [%] |
| --- | --- |
| Cc1cc(C(C)Nc2ccccc2)c2nc(N3CCOCC3)cc(=O)n2c1 (stereo unspecified) [TGX-221] (1000 nM) | 88.8 |
| CCCC(CCC)C(=O)O [Valproic acid] (100000 nM) | 103 |
| COc1cc(Nc2ncc(F)c(Nc3ccc4c(n3)NC(=O)C(C)(C)O4)n2)cc(OC)c1OC [Tamatinib] (1000 nM) | 77.5 |
| Nc1nccc(-c2c(-c3ccc(F)cc3)ncn2C2CCCCC2)n1 (1000 nM) | 101 |
| CN(c1ccccc1CNc1nc(Nc2ccc3c(c2)CC(=O)N3)ncc1C(F)(F)F)S(C)(=O)=O (1000 nM) | 93.5 |
| FC(F)c1nc2ccccc2n1-c1nc(N2CCOCC2)nc(N2CCOCC2)n1 [ZSTK474] (1000 nM) | 42.4 |
| C[C@@H]1CCN(C(=O)CC#N)C[C@@H]1N(C)c1ncnc2[nH]ccc12 [Tofacitinib] (500 nM) | 98.4 |
| COC(=O)C[C@](O)(CCCC(C)(C)O)C(=O)O[C@@H]1C(OC)=C[C@]23CCCN2CCc2cc4c(cc2[C@H]13)OCO4 [Omacetaxine] (1000 nM) | 7.92 |
| CS(=O)(=O)CCNCc1ccc(-c2ccc3ncnc(Nc4ccc(OCc5cccc(F)c5)c(Cl)c4)c3c2)o1 [Lapatinib] (100 nM) | 104 |

test system: HCC1143; experiment: as above; settings: incubation time: 72 h
Summary of the method: as §1

| SMILES | normalised response [%] |
| --- | --- |
| Cc1cc(C(C)Nc2ccccc2)c2nc(N3CCOCC3)cc(=O)n2c1 (stereo unspecified) [TGX-221] (1000 nM) | 89.4 |
| CCCC(CCC)C(=O)O [Valproic acid] (100000 nM) | 101 |
| COc1cc(Nc2ncc(F)c(Nc3ccc4c(n3)NC(=O)C(C)(C)O4)n2)cc(OC)c1OC [Tamatinib] (1000 nM) | 104 |
| Nc1nccc(-c2c(-c3ccc(F)cc3)ncn2C2CCCCC2)n1 (1000 nM) | 101 |
| CN(c1ccccc1CNc1nc(Nc2ccc3c(c2)CC(=O)N3)ncc1C(F)(F)F)S(C)(=O)=O (1000 nM) | 87.8 |
| FC(F)c1nc2ccccc2n1-c1nc(N2CCOCC2)nc(N2CCOCC2)n1 [ZSTK474] (1000 nM) | 73.5 |
| C[C@@H]1CCN(C(=O)CC#N)C[C@@H]1N(C)c1ncnc2[nH]ccc12 [Tofacitinib] (500 nM) | 99.6 |
| COC(=O)C[C@](O)(CCCC(C)(C)O)C(=O)O[C@@H]1C(OC)=C[C@]23CCCN2CCc2cc4c(cc2[C@H]13)OCO4 [Omacetaxine] (1000 nM) | 14.5 |
| CS(=O)(=O)CCNCc1ccc(-c2ccc3ncnc(Nc4ccc(OCc5cccc(F)c5)c(Cl)c4)c3c2)o1 [Lapatinib] (100 nM) | 103 |

test system: SK-BR-3; experiment: as above; settings: incubation time: 72 h
Summary of the method: as §1

| SMILES | normalised response [%] |
| --- | --- |
| Cc1cc(C(C)Nc2ccccc2)c2nc(N3CCOCC3)cc(=O)n2c1 (stereo unspecified) [TGX-221] (1000 nM) | 91.7 |
| CCCC(CCC)C(=O)O [Valproic acid] (100000 nM) | 101 |
| COc1cc(Nc2ncc(F)c(Nc3ccc4c(n3)NC(=O)C(C)(C)O4)n2)cc(OC)c1OC [Tamatinib] (1000 nM) | 104 |
| Nc1nccc(-c2c(-c3ccc(F)cc3)ncn2C2CCCCC2)n1 (1000 nM) | 95.4 |
| CN(c1ccccc1CNc1nc(Nc2ccc3c(c2)CC(=O)N3)ncc1C(F)(F)F)S(C)(=O)=O (1000 nM) | 79.7 |
| FC(F)c1nc2ccccc2n1-c1nc(N2CCOCC2)nc(N2CCOCC2)n1 [ZSTK474] (1000 nM) | 35.2 |
| C[C@@H]1CCN(C(=O)CC#N)C[C@@H]1N(C)c1ncnc2[nH]ccc12 [Tofacitinib] (500 nM) | 107 |
| COC(=O)C[C@](O)(CCCC(C)(C)O)C(=O)O[C@@H]1C(OC)=C[C@]23CCCN2CCc2cc4c(cc2[C@H]13)OCO4 [Omacetaxine] (1000 nM) | 12.6 |
| CS(=O)(=O)CCNCc1ccc(-c2ccc3ncnc(Nc4ccc(OCc5cccc(F)c5)c(Cl)c4)c3c2)o1 [Lapatinib] (100 nM) | 50.2 |

test system: BT-474; experiment: as above; settings: incubation time: 72 h
Summary of the method: as §1

| SMILES | normalised response [%] |
| --- | --- |
| Cc1cc(C(C)Nc2ccccc2)c2nc(N3CCOCC3)cc(=O)n2c1 (stereo unspecified) [TGX-221] (1000 nM) | 83.3 |
| CCCC(CCC)C(=O)O [Valproic acid] (100000 nM) | 98.6 |
| COc1cc(Nc2ncc(F)c(Nc3ccc4c(n3)NC(=O)C(C)(C)O4)n2)cc(OC)c1OC [Tamatinib] (1000 nM) | 96.6 |
| Nc1nccc(-c2c(-c3ccc(F)cc3)ncn2C2CCCCC2)n1 (1000 nM) | 98.9 |
| CN(c1ccccc1CNc1nc(Nc2ccc3c(c2)CC(=O)N3)ncc1C(F)(F)F)S(C)(=O)=O (1000 nM) | 73.2 |
| FC(F)c1nc2ccccc2n1-c1nc(N2CCOCC2)nc(N2CCOCC2)n1 [ZSTK474] (1000 nM) | 70.3 |
| C[C@@H]1CCN(C(=O)CC#N)C[C@@H]1N(C)c1ncnc2[nH]ccc12 [Tofacitinib] (500 nM) | 107 |
| COC(=O)C[C@](O)(CCCC(C)(C)O)C(=O)O[C@@H]1C(OC)=C[C@]23CCCN2CCc2cc4c(cc2[C@H]13)OCO4 [Omacetaxine] (1000 nM) | 26.4 |
| CS(=O)(=O)CCNCc1ccc(-c2ccc3ncnc(Nc4ccc(OCc5cccc(F)c5)c(Cl)c4)c3c2)o1 [Lapatinib] (100 nM) | 99.9 |

test system: DU-4475; experiment: as above; settings: incubation time: 72 h
Summary of the method: as §1

| SMILES | normalised response [%] |
| --- | --- |
| Cc1cc(C(C)Nc2ccccc2)c2nc(N3CCOCC3)cc(=O)n2c1 (stereo unspecified) [TGX-221] (1000 nM) | 95.7 |
| CCCC(CCC)C(=O)O [Valproic acid] (100000 nM) | 94 |
| COc1cc(Nc2ncc(F)c(Nc3ccc4c(n3)NC(=O)C(C)(C)O4)n2)cc(OC)c1OC [Tamatinib] (1000 nM) | 103 |
| Nc1nccc(-c2c(-c3ccc(F)cc3)ncn2C2CCCCC2)n1 (1000 nM) | 103 |
| CN(c1ccccc1CNc1nc(Nc2ccc3c(c2)CC(=O)N3)ncc1C(F)(F)F)S(C)(=O)=O (1000 nM) | 84.8 |
| FC(F)c1nc2ccccc2n1-c1nc(N2CCOCC2)nc(N2CCOCC2)n1 [ZSTK474] (1000 nM) | 87.9 |
| C[C@@H]1CCN(C(=O)CC#N)C[C@@H]1N(C)c1ncnc2[nH]ccc12 [Tofacitinib] (500 nM) | 103 |
| COC(=O)C[C@](O)(CCCC(C)(C)O)C(=O)O[C@@H]1C(OC)=C[C@]23CCCN2CCc2cc4c(cc2[C@H]13)OCO4 [Omacetaxine] (1000 nM) | 25 |
